Where a SMILES comes first, the peptide text is derived from it. [ ]: non-standard residue; d: D form.
target: T1, PSD-95-PDZ2 (Homo sapiens, UniProt P78352); assay: Fluorescence polarization (FP) competition assay against cyclic nNOS TAMRA probe; format: binding; conditions: FP competition, cyclic nNOS TAMRA probe; mean of triplicates; N.B. = not binding; read-out: Ki
T1 construct: 7xHis (N); made in house; host or cells: Escherichia coli B21 pLys (for the mutants, 'as previously described')
T1 sequence (P78352 160-246 limits assumed): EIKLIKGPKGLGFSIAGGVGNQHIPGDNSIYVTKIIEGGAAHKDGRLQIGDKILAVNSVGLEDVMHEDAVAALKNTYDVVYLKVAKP

Ki [µM] | Compound
0.59 | CC[C@H](C)[C@@H]1NC(=O)[C@H]([C@@H](C)O)NC(=O)[C@H](CCCCN)NC(=O)[C@@H]2CCCN2C(=O)[C@H]([C@@H](C)O)NC(=O)CNC(=O)[C@@H](CC(=O)O)NC(=O)CNC(=O)[C@H]([C@@H](C)O)NC(=O)[C@H](Cc2ccccc2)NC(=O)[C@H]([C@@H](C)O)NC(=O)[C@H]([C@@H](C)O)NC(=O)[C@H](CCC(=O)O)NC(=O)[C@H](CC(C)C)NC(=O)[C@H](Cc2c[nH]cn2)NC(=O)[C@H]([C@@H](C)O)NC(=O)[C@H](CCC(N)=O)NC(=O)CNC(=O)[C@H]2CCCN2C(=O)[C@H](CCC(N)=O)NC(=O)[C@H]([C@@H](C)O)NC(=O)[C@H](C(C)C)NC(=O)[C@H](CCCNC(=N)N)NC1=O [compound 120]
23.2 | CC[C@H](C)[C@@H]1NC(=O)[C@H]([C@@H](C)O)NC(=O)[C@@H](CCCCN)NC(=O)[C@@H]2CCCN2C(=O)[C@H]([C@@H](C)O)NC(=O)CNC(=O)[C@H](CC(=O)O)NC(=O)CNC(=O)[C@H]([C@@H](C)O)NC(=O)[C@H](Cc2ccccc2)NC(=O)[C@H]([C@@H](C)O)NC(=O)[C@H]([C@@H](C)O)NC(=O)[C@H](CCC(=O)O)NC(=O)[C@H](CC(C)C)NC(=O)[C@H](Cc2c[nH]cn2)NC(=O)[C@H]([C@@H](C)O)NC(=O)[C@H](CCC(N)=O)NC(=O)CNC(=O)[C@H]2CCCN2C(=O)[C@H](CCC(N)=O)NC(=O)[C@H]([C@@H](C)O)NC(=O)[C@H](C(C)C)NC(=O)[C@H](CCCNC(=N)N)NC1=O [compound 123]
9 | CC[C@H](C)[C@@H]1NC(=O)[C@H]([C@@H](C)O)NC(=O)[C@H](CCCCN)NC(=O)[C@@H]2CCCN2C(=O)[C@H]([C@@H](C)O)NC(=O)CNC(=O)[C@H](CC(=O)O)NC(=O)CNC(=O)[C@H]([C@@H](C)O)NC(=O)[C@H](Cc2ccccc2)NC(=O)[C@H]([C@@H](C)O)NC(=O)[C@H]([C@@H](C)O)NC(=O)[C@H](CCC(=O)O)NC(=O)[C@H](CC(C)C)NC(=O)[C@H](Cc2c[nH]cn2)NC(=O)[C@H]([C@@H](C)O)NC(=O)[C@H](CCC(N)=O)NC(=O)CNC(=O)[C@H]2CCCN2C(=O)[C@H](CCC(N)=O)NC(=O)[C@H]([C@@H](C)O)NC(=O)[C@H](C(C)C)NC(=O)[C@@H](CCCNC(=N)N)NC1=O [compound 126]
1.83 | CC[C@H](C)[C@@H]1NC(=O)[C@H]([C@@H](C)O)NC(=O)[C@H](CCCCN)NC(=O)[C@@H]2CCCN2C(=O)[C@H]([C@@H](C)O)NC(=O)CNC(=O)[C@H](CC(=O)O)NC(=O)CNC(=O)[C@H]([C@@H](C)O)NC(=O)[C@H](Cc2ccccc2)NC(=O)[C@H]([C@@H](C)O)NC(=O)[C@H]([C@@H](C)O)NC(=O)[C@H](CCC(=O)O)NC(=O)[C@H](CC(C)C)NC(=O)[C@H](Cc2c[nH]cn2)NC(=O)[C@H]([C@@H](C)O)NC(=O)[C@H](CCC(N)=O)NC(=O)CNC(=O)[C@H]2CCCN2C(=O)[C@H](CCC(N)=O)NC(=O)[C@@H]([C@H](C)O)NC(=O)[C@H](C(C)C)NC(=O)[C@H](CCCNC(=N)N)NC1=O [compound 128]
0.65 | CC[C@H](C)[C@@H]1NC(=O)[C@H]([C@@H](C)O)NC(=O)[C@H](CCCCN)NC(=O)[C@@H]2CCCN2C(=O)[C@H](CC(=O)O)NC(=O)CNC(=O)[C@H](CC(=O)O)NC(=O)CNC(=O)[C@H](Cc2c[nH]c3ccccc23)NC(=O)[C@H](Cc2ccccc2)NC(=O)[C@H]([C@@H](C)O)NC(=O)[C@H]([C@@H](C)O)NC(=O)[C@H](CCC(=O)O)NC(=O)[C@H](CC(C)C)NC(=O)[C@H](Cc2c[nH]cn2)NC(=O)[C@H]([C@@H](C)O)NC(=O)[C@H](CCC(N)=O)NC(=O)CNC(=O)[C@H]2CCCN2C(=O)[C@H](CCC(N)=O)NC(=O)[C@H]([C@@H](C)O)NC(=O)[C@H](C(C)C)NC(=O)[C@H](CCCNC(=N)N)NC1=O [compound 130] (cyclo(THLETTFWGDGDPKTIRVTQ[dP]GQ))

Further lines, the compound ahead of its results:

Compound | Ki [µM]
CC[C@H](C)[C@@H]1NC(=O)[C@H]([C@@H](C)O)NC(=O)[C@H](CCCCN)NC(=O)[C@@H]2CCCN2C(=O)[C@H]([C@@H](C)O)NC(=O)CNC(=O)[C@H](CC(=O)O)NC(=O)CNC(=O)[C@H]([C@@H](C)O)NC(=O)[C@H](Cc2ccccc2)NC(=O)[C@H]([C@@H](C)O)NC(=O)[C@H]([C@@H](C)O)NC(=O)[C@H](CCC(=O)O)NC(=O)[C@H](CC(C)C)NC(=O)[C@H](Cc2c[nH]cn2)NC(=O)[C@H]([C@@H](C)O)NC(=O)[C@H](CCC(N)=O)NC(=O)CNC(=O)[C@H]2CCCN2C(=O)[C@H](CCC(N)=O)N(C)C(=O)[C@H]([C@@H](C)O)NC(=O)[C@H](C(C)C)NC(=O)[C@H](CCCNC(=N)N)NC1=O [compound 102] | 2.2
CC[C@H](C)[C@@H]1NC(=O)[C@H]([C@@H](C)O)NC(=O)[C@H](CCCCN)NC(=O)[C@@H]2CCCN2C(=O)[C@H]([C@@H](C)O)NC(=O)CNC(=O)[C@H](CC(=O)O)NC(=O)CNC(=O)[C@H]([C@@H](C)O)NC(=O)[C@H](Cc2ccccc2)NC(=O)[C@H]([C@@H](C)O)NC(=O)[C@H]([C@@H](C)O)NC(=O)[C@H](CCC(=O)O)NC(=O)[C@H](CC(C)C)NC(=O)[C@H](Cc2c[nH]cn2)NC(=O)[C@@H]([C@H](C)O)NC(=O)[C@H](CCC(N)=O)NC(=O)CNC(=O)[C@H]2CCCN2C(=O)[C@H](CCC(N)=O)NC(=O)[C@H]([C@@H](C)O)NC(=O)[C@H](C(C)C)NC(=O)[C@H](CCCNC(=N)N)NC1=O [compound 112] | 14.6
CC[C@H](C)[C@@H]1NC(=O)[C@H]([C@@H](C)O)NC(=O)[C@H](CCCCN)NC(=O)[C@@H]2CCCN2C(=O)[C@H]([C@@H](C)O)NC(=O)CNC(=O)[C@H](CC(=O)O)NC(=O)CNC(=O)[C@H]([C@@H](C)O)NC(=O)[C@H](Cc2ccccc2)NC(=O)[C@H]([C@@H](C)O)NC(=O)[C@H]([C@@H](C)O)NC(=O)[C@H](CCC(=O)O)NC(=O)[C@H](CC(C)C)NC(=O)[C@@H](Cc2c[nH]cn2)NC(=O)[C@H]([C@@H](C)O)NC(=O)[C@H](CCC(N)=O)NC(=O)CNC(=O)[C@H]2CCCN2C(=O)[C@H](CCC(N)=O)NC(=O)[C@H]([C@@H](C)O)NC(=O)[C@H](C(C)C)NC(=O)[C@H](CCCNC(=N)N)NC1=O [compound 113] | 13.1
CC[C@H](C)[C@@H]1NC(=O)[C@H]([C@@H](C)O)NC(=O)[C@H](CCCCN)NC(=O)[C@@H]2CCCN2C(=O)[C@@H]([C@H](C)O)NC(=O)CNC(=O)[C@H](CC(=O)O)NC(=O)CNC(=O)[C@H]([C@@H](C)O)NC(=O)[C@H](Cc2ccccc2)NC(=O)[C@H]([C@@H](C)O)NC(=O)[C@H]([C@@H](C)O)NC(=O)[C@H](CCC(=O)O)NC(=O)[C@H](CC(C)C)NC(=O)[C@H](Cc2c[nH]cn2)NC(=O)[C@H]([C@@H](C)O)NC(=O)[C@H](CCC(N)=O)NC(=O)CNC(=O)[C@H]2CCCN2C(=O)[C@H](CCC(N)=O)NC(=O)[C@H]([C@@H](C)O)NC(=O)[C@H](C(C)C)NC(=O)[C@H](CCCNC(=N)N)NC1=O [compound 121] | 2
CC[C@H](C)[C@@H]1NC(=O)[C@H]([C@@H](C)O)NC(=O)[C@H](CCCCN)NC(=O)[C@H]2CCCN2C(=O)[C@H]([C@@H](C)O)NC(=O)CNC(=O)[C@H](CC(=O)O)NC(=O)CNC(=O)[C@H]([C@@H](C)O)NC(=O)[C@H](Cc2ccccc2)NC(=O)[C@H]([C@@H](C)O)NC(=O)[C@H]([C@@H](C)O)NC(=O)[C@H](CCC(=O)O)NC(=O)[C@H](CC(C)C)NC(=O)[C@H](Cc2c[nH]cn2)NC(=O)[C@H]([C@@H](C)O)NC(=O)[C@H](CCC(N)=O)NC(=O)CNC(=O)[C@H]2CCCN2C(=O)[C@H](CCC(N)=O)NC(=O)[C@H]([C@@H](C)O)NC(=O)[C@H](C(C)C)NC(=O)[C@H](CCCNC(=N)N)NC1=O [compound 122] | 6.7
CC[C@H](C)[C@@H]1NC(=O)[C@H]([C@@H](C)O)NC(=O)[C@H](CCCCN)NC(=O)[C@@H]2CCCN2C(=O)[C@H]([C@@H](C)O)NC(=O)CNC(=O)[C@H](CC(=O)O)NC(=O)CNC(=O)[C@H]([C@@H](C)O)NC(=O)[C@H](Cc2ccccc2)NC(=O)[C@H]([C@@H](C)O)NC(=O)[C@H]([C@@H](C)O)NC(=O)[C@H](CCC(=O)O)NC(=O)[C@H](CC(C)C)NC(=O)[C@H](Cc2c[nH]cn2)NC(=O)[C@H]([C@@H](C)O)NC(=O)[C@H](CCC(N)=O)NC(=O)CNC(=O)[C@H]2CCCN2C(=O)[C@@H](CCC(N)=O)NC(=O)[C@H]([C@@H](C)O)NC(=O)[C@H](C(C)C)NC(=O)[C@H](CCCNC(=N)N)NC1=O [compound 129] | 11.1
CC[C@H](C)[C@@H]1NC(=O)[C@H]([C@@H](C)O)NC(=O)[C@H](CCCCN)NC(=O)[C@@H]2CCCN2C(=O)[C@H]([C@@H](C)O)NC(=O)[C@@H]2CCCN2C(=O)[C@H](CC(=O)O)NC(=O)CNC(=O)[C@H](Cc2c[nH]c3ccccc23)NC(=O)[C@H](Cc2ccccc2)NC(=O)[C@H]([C@@H](C)O)NC(=O)[C@H]([C@@H](C)O)NC(=O)[C@H](CCC(=O)O)NC(=O)[C@H](CC(C)C)NC(=O)[C@H](Cc2c[nH]cn2)NC(=O)[C@H]([C@@H](C)O)NC(=O)[C@H](CCC(N)=O)NC(=O)CNC(=O)[C@H]2CCCN2C(=O)[C@H](CCC(N)=O)NC(=O)[C@H]([C@@H](C)O)NC(=O)[C@H](C(C)C)NC(=O)[C@H](CCCNC(=N)N)NC1=O [compound 131] (cyclo(THLETTFWGDPTPKTIRVTQ[dP]GQ)) | 0.95
CC[C@H](C)[C@@H]1NC(=O)[C@H]([C@@H](C)O)NC(=O)[C@H](CCCCN)NC(=O)[C@@H]2CCCN2C(=O)[C@H](CCC(=O)O)NC(=O)[C@H](C)NC(=O)[C@H](CC(=O)O)NC(=O)CNC(=O)[C@H](Cc2c[nH]c3ccccc23)NC(=O)[C@H](Cc2ccccc2)NC(=O)[C@H]([C@@H](C)O)NC(=O)[C@H]([C@@H](C)O)NC(=O)[C@H](CCC(=O)O)NC(=O)[C@H](CC(C)C)NC(=O)[C@H](Cc2c[nH]cn2)NC(=O)[C@H]([C@@H](C)O)NC(=O)[C@H](CCC(N)=O)NC(=O)CNC(=O)[C@H]2CCCN2C(=O)[C@H](CCC(N)=O)NC(=O)[C@H]([C@@H](C)O)NC(=O)[C@H](C(C)C)NC(=O)[C@H](CCCNC(=N)N)NC1=O [compound 134] (cyclo(THLETTFWGDAEPKTIRVTQ[dP]GQ)) | 0.26

— patent US20230220021A1, “CYCLIC PEPTIDE INHIBITORS OF PSD-95 AND USES THEREOF” (University of Copenhagen, priority 2020, published 2023)
